Assay results reported in patent USRE38257E1, “Piperdine derivatives and hypotensives containing the same” (Ajinomoto Co., Inc., priority 1988, dated 2003).

Test system: male spontaneously hypertensive rats
Assay: Decrease in systolic blood pressure in spontaneously hypertensive rats after intravenous bolus injection, indirect (tail-cuff) method
Type: in vivo, rat
Conditions: for Decrease in systolic blood pressure (mmHg) time after administration (hour) 0.5: 0.5 hour after administration; for Decrease in systolic blood pressure (mmHg) time after administration (hour) 4: 4 hours after administration
Experimental: As test animals, four male spontaneously hypertensive rats (weight 400 to 440 g) that were sufficiently adapted for feeding and in which hypertension was confirmed were used.
Physiological saline aqueous solution containing 2.5% Nicolle and 2.5% ethanol of sample was intravenously administered by bolus injection at a dose of 1 ml per 1 kg of body weight. Systolic blood pressure after administration was measured by the indirect (tail-cuff) method.

Row | Molecule | Decrease in systolic blood pressure (mmHg) time after administration (hour) 0.5 (dose 10 mg/kg i.v. bolus) | Decrease in systolic blood pressure (mmHg) time after administration (hour) 4 (dose 10 mg/kg i.v. bolus) | Decrease in systolic blood pressure (mmHg) time after administration (hour) 0.5 (dose 3 mg/kg i.v. bolus) | Decrease in systolic blood pressure (mmHg) time after administration (hour) 4 (dose 3 mg/kg i.v. bolus)
1 | Cl.O=S(=O)(CCCN1CCC(=C2c3ccccc3C=Cc3ccccc32)CC1)c1ccccc1 [Example 241, 3-(4-(5H-Dibenzo[a,d]cyclohepten-5-ylidene)-1-piperidinyl)-1-propyl phenylsulphone hydrochloride] | −73 mmHg | −4 mmHg |  | 
2 | 4-(4-(5H-Dibenzo[a,d]cyclohepten-5-ylidene)-1-piperidinyl)-4′-trimethoxybutyrophenone hydrochloride [Example 172] | −115 mmHg | −25 mmHg |  | 
3 | C1=Cc2ccccc2C(=C2CCN(CCCOC3CCCCC3)CC2)c2ccccc21.Cl [Example 218, Cyclohexyl 3-(4-(5H-Dibenzo[a,d]cyclohpetan-5-ylidene)-1-piperidinyl)propylether hydrochloride] | −97 mmHg | −11 mmHg |  | 
4 | CCCCCCCCCCCCCCN1CCC(=C2c3ccccc3C=Cc3ccccc32)CC1.Cl [Example 5, 4-(5H-Dibenzo[a,d]cyclohepten-5-ylidene)-1-tetradecylpiperidine hydrochloride] | −56 mmHg | −20 mmHg |  | 
5 | Cl.N#Cc1ccccc1CN1CCC(=C2c3ccccc3C=Cc3ccccc32)CC1 [Example 158, 1-(2-Cyanobenzyl)-4-(5H-dibenzo[a,d]cyclohepten-5-ylidene)piperidine hydrochloride] | −8 mmHg | 7 mmHg |  | 
6 | COc1cccc(C=CC(=O)N2CCC(=C3c4ccccc4C=Cc4ccccc43)CC2)c1OC [Example 192, 4-(5H-Dibenzo[a,d]cyclohepten-5-ylidene)-1-(2-dimethoxycinnamoyl)piperidine] | −25 mmHg | −36 mmHg |  | 
7 | CC(=O)N1CCC(C=CCCCN2CCC(=C3c4ccccc4C=Cc4ccccc43)CC2)CC1.Cl.Cl [Example 321, 1-(N-Acetyl-4-piperidinyl)-5-(4-(5H-dibenzo[a,d]cyclohepten-5-ylidene)-1-piperidinyl)-1-pentene dihydrochloride] | −60 mmHg | −4 mmHg |  | 
8 | Cl.c1ccc2c(c1)CCc1ccccc1C2=C1CCN(CCCCC2CCCCC2)CC1 [Example 186] | −95 mmHg | −12 mmHg |  | 
9 | COc1cccc(CN2CCC(=C3c4ccccc4CCc4ccccc43)CC2)c1.Cl [Example 184, 4-(10,11-dihydro-5H-dibenzo[a,d]cyclohepten-5-ylidene)-1-(3-methoxybenzyl)piperidine hydrochloride] | −16 mmHg | −4 mmHg |  | 
10 | Cl.O=C(CCCN1CCC(=C2c3ccccc3C=Cc3ccccc32)CC1)N1CCCCC1 [Example 203, 1-(4-(4-(5H-Dibenzo[a,d]cyclohepten-5-ylidene)-1-piperidinyl)butanoyl)piperidine hydrochloride] |  |  | −123 mmHg | −58 mmHg
11 | COc1cccc(CCCN2CCC(=C3c4ccccc4C=Cc4ccccc43)CC2)c1OC.Cl [Example 286, 3-(4-(5H-Dibenzo[a,d]cyclohepten-5-ylidene)-1-piperidinyl)-1-(2,3-dimethoxyphenyl)propane hydrochloride] | −134 mmHg | −40 mmHg |  | 
12 | 4-(4-(5H-Dibenzo[a,d]cyclohepten-5-ylidene)-1-piperidinyl)-3′,4′-dimethoxybutyrophenone N-oxide [Example 271] | −17 mmHg | −13 mmHg |  | 
